Measurements: patent EP0072352B1, “Benzazepin-2-ones, process for their preparation, pharmaceutical preparations containing these compounds and the compounds for therapeutical use” (CIBA-GEIGY AG, priority 1981, dated 1983)
Counter-ions that a name gives are not always drawn. Like-named read-outs stand apart in the source and are kept apart here.

Tests used:
[1] = target: T1, Angiotensin-umwandelnde Enzym (ACE) (Oryctolagus cuniculus, UniProt P12822); assay: In vitro ACE inhibition (ACEI), rabbit lung tissue preparation, hippuryl-histidyl-leucine substrate, method of Cheung and Cushman; assay type: biochemical, Kaninchen
T1 construct: Es wurde ein Kaninchen-Lungengewebe-Präparat; from tissue; host or cells: lung of adult male rabbits
T1 sequence (P12822 34-1310): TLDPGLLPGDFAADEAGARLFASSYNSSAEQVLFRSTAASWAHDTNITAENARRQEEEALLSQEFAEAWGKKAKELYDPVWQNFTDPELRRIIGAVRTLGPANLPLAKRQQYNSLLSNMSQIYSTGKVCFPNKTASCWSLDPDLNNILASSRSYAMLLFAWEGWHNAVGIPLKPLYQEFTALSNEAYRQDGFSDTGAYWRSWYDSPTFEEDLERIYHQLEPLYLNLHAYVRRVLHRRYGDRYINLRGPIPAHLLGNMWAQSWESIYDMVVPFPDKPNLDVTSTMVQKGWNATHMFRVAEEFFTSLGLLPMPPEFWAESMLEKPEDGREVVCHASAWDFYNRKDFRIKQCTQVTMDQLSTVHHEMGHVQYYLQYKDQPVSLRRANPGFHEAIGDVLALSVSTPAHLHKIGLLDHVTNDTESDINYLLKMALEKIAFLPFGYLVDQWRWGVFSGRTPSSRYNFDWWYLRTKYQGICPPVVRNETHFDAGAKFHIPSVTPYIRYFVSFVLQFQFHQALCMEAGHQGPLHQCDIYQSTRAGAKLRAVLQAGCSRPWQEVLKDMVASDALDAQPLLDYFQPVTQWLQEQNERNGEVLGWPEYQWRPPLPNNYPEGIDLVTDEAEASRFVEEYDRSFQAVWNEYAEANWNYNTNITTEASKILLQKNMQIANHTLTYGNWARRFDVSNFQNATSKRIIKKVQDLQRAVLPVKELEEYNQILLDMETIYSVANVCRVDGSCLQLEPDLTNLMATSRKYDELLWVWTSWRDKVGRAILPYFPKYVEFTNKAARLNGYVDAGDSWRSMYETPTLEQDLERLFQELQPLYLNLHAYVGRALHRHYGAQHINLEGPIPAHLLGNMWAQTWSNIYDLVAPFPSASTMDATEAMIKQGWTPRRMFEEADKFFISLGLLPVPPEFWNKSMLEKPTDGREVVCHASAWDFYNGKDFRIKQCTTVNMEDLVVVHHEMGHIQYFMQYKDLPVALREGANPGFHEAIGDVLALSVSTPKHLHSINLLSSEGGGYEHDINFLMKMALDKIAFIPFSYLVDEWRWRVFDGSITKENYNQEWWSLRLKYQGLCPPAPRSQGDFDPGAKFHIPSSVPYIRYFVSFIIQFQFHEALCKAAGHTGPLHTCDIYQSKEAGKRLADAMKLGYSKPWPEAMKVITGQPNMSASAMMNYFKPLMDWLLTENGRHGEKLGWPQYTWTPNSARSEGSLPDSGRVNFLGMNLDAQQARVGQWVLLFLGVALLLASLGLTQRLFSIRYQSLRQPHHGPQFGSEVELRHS
Description: Die in-vitro-Hemmung des Enzyms, welches das Angiotensin umwandelt, kann bei den Verbindungen dieser Erfindung analog zu Biochim. Biophys. Acta 293, 451 (1973) nachgewiesen werden. Gemäß dieser Methode werden die genannten Verbindungen in ungefähr 1 mMol-Konzentrationen in Phosphatpuffer aufgelöst. Zu 100 Mikroliter von Lösungen der Testverbindung in Phosphatpuffer, welche man auf die gewünschte Konzentration verdünnt, gibt man zuerst 100 Mikroliter von 5 millimolarem Hippuryl-histidylleucin in Phosphatpuffer und dann 50 µl des Angiotensin-umwandelnden Enzyms. Dieses Enzym wird aus Lungen von erwachsenen männlichen Kaninchen in Tris-Puffer, der Kalium- und Magnesiumchlorid und auch Rohrzucker enthält, hergestellt. Die genannten Lösungen werden 30 Minuten bei 37 °C inkubiert, und die weitere Reaktion wird durch Hinzufügen von 0,75 ml einer 0,6-normalen wäßrigen Natriumhydroxidlösung gestoppt. Dann gibt man bei Zimmertemperatur 100 Mikroliter einer 0,2 %-igen Lösung von o-Phthalaldehyd in Methanol und nach 10 Minuten 100 Mikroliter 6n-Chlorwasserstoffsäure dazu. Diese Proben werden in einem Spektrophotometer bei 360 nm mit Wasser verglichen, und ihre optische Dichte wird bestimmt. Diese Werte werden durch einen Konversionsfaktor einer Standard-Kurve angepaßt, wobei man die während der genannten Inkubation von 30 Minuten gebildete Histidyl-leucin-Menge in Nanomolen erhält. Die Ergebnisse werden, um den IC50-Wert zu bestimmen, gegenüber den Wirkstoff-Konzentrationen graphisch als Kurve dargestellt. Der IC50-Wert bedeutet diejenige WirkstoffKonzentration, welche die Hälfte der Aktivität einer Kontrollprobe, die keinen Wirkstoff enthält, ergibt. Als Illustration der Erfindung sei auf das « höher schmelzende 1-Carboxymethyl-3-(1-carboxy-3-phenylpro- pylamino)-2,3,4,5-tetrahydro-1H-[1]-benzazepin-2-on des Beispiels 9 und auf das entsprechende S,S-Enantiomere des Beispiels 19 hingewiesen, welche einen lC50-Wert von 5,2 × 10^-9 M bzw. 1,7 × 10^-9 M aufweisen. Das entsprechende « niedriger schmelzende » 1-Carboxymethyl-3-(1-carboxy-3-phenylpropy- iamino)-2,3,4,5-tetrahydro-1H-[1] benzazepin-2-on des Beispiels 8 zeigt einen lC50-Wert von 5,8 ×10^-8 M.
Die Prüfung der Wirkung von Verbindungen ist gemäss den Methoden für die Auswertung der Hemmung des Enzyms, welches das Angiotensin umwandelt [angiotensin converting enzyme = ACE] durchgeführt worden. In der biochemischen Beurteilung der in vitro ACE-Hemmung [ACE inhibition = A-CEI] wird die Aktivität einer Verbindung im Kaninchen-Lungengewebe bestimmt.
Es wurde ein Kaninchen-Lungengewebe-Präparat [Das and Saffer, J. Biol. Chem. 250 : 6762 (1975) für die Bestimmung von ACE nach der Methode von Cheung und Cushman [Cheung and Cushman, Biochim. Biophys. Acta 293, 451 (1973)] verwendet. In dieser Methode wird die Menge des Histidyl-leucins. welche aus einem synthetischen Substrat innerhalb einer Inkubation von 30 Minuten bei 37° freigesetzt wird, spektrophotometrisch bestimmt. Die lC50-Werte der ACE-Hemmung werden dann graphisch berechnet. Der lC50-Wert ist die Konzentration (in Mol) der getesteten Verbindung, welche die in Abwesenheit der Testsubstanz entstehende Menge des Histidyl-leucins um 50 % herabsetzt.

[2] = test system: durch Angiotensin I (AI) hervorgerufene Blutdrucksteigerung; assay: Inhibition of the angiotensin I (AI) induced blood pressure rise after intravenous administration of the test compound; assay type: in vivo, Ratten; details: for Hemmung der Blutdrucksteigerung nach Angiotensin I-Reizung: 1 mg/kg i.v., anaesthetised male normotensive rats, during 30 min after administration, 333 ng/kg angiotensin I; for % AI Hemmung: rat, mean inhibition within 30 min after administration
Description: Die Verbindungen der Erfindung zeigen nach intravenöser oder oraler Verabreichung eine hemmende Wirkung gegen die durch Angiotensin I hervorgerufene Blutdrucksteigerung auch an normotensiven Ratten. Das Angiotensin 1 wird durch das genannte Umwandlungsenzym zu der stark blutdrucksteigernden Substanz Angiotensin II hydrolysiert. Die Hemmung des genannten Enzyms blockiert die Bildung von Angiotensin II aus Angiotensin I. In dieser Weise wird die durch Angiotensin I provozierte Blutdrucksteigerung abgeschwächt.
Der entsprechende in-vivo-Test mit den intravenös verabreichten Verbindungen wird mit männlichen normotensiven Ratten, welche mit dem Natriumsalz der 5-Äthyl-5-(1-methylpropyl)-2-thiobarbitursäure narkotisiert sind, durchgeführt. Eine femorale Arterie und eine Wadenvene werden mit je einer Hohlnadel für die direkte Messung des Blutdrucks und für die intravenöse Verabreichung des Angiotensins I und einer erfindungsgemäßen Verbindung versehen. Nach der Stabilisierung des basalen Blutdrucks wird die Druckänderung nach drei, in 5-minütigen Intervallen, i. v. durchgeführten Reizungen mit 333 ng/kg Angiotensin I bestimmt. Solche Druckänderungen werden wieder nach 5,10,15, 30 und 60 Minuten nach intravenöser Verabreichung der zu prüfenden Verbindung bestimmt. Die letztgenannten Druckänderungen werden mit den Anfangswerten verglichen. Jede festgestellte Abnahme vom Ansprechen des Blutdrucks ist ein Hinweis auf die Hemmung des Enzyms, welches das Angiotensin I umwandelt. Als Illustration der Erfindung sei auf das « höher schmelzende » 1-Carboxymethyl-3-(1-äthoxycarbonyl-3-phenylpropylamino)-2,3,4,5-tetrahydro-1H-[1] benzazepin-2-on des Beispiels 1 und auf das entsprechende S,S-Enantiomere des Beispiels 12 hingewiesen. Diese hemmen vollständig die Blutdrucksteigerung nach Angiotensin I-Reizung während 30 Minuten nach intravenöser Verabreichung einer Dosis von 1 mg/kg pro Substanz.
In der in vivo Prüfungsmethode wird zuerst durch Verabreichung des Angiotensins I (AI) an das Versuchstier eine Blutdrucksteigerung hervorgerufen. Es wird dann die Hemmung der einzelnen Verbindungen auf diese Blutdrucksteigerung gemessen.
11. Methode der Hemmung der durch Angiotensin I (AI) hervorgerufenen Blutdrucksteigerung, durch intravenöse Verabreichung der Testverbindung (% AI-Hemmung)
In diesen Untersuchungen wird wie oben beschrieben, je ein Katheter in eine femurale Arterie und in eine Wadenvene der Ratte eingeführt.
Der arterielle Druck wurde von dem Arterienkatheter aus registriert, während man Angiotensin I (AI) und die einzelnen Testverbindungen durch den Venenkatheter injiziert hatte. Die Hemmung der durch Angiotensin I verursachten Blutdrucksteigerung ist als prozentuelle Abnahme des vor der Behandlung erhaltenen Kontrollwertes der Blutdrucksteigerung ausgedrückt und in der Tabelle als Durchschnittswert der Hemmung innerhalb 30 Minuten nach Verabreichung der Testsubstanz angegeben. (Siehe Tabelle Seite 41 f.)

[3] = test system: spontan hypertensiven Ratten; assay: Antihypertensive effect in spontaneously hypertensive rats, indirect measurement of systolic blood pressure (tail cuff), oral dosing; assay type: in vivo
Description: Die in vivo blutdrucksenkende Wirkung wird entweder direkt mit einem Katheter, der in die femorale Arterie des Versuchstieres eingeführt ist, oder indirekt durch Sphygmomanometrie am Rattenschwanz, und einem Übertragungsinstrument registriert. Der Blutdruck wird vor und nach der Verabreichung des Wirkstoffes in mm Hg bestimmt.
So sind die antihypertensiven Wirkungen in spontan hypertensiven Ratten durch indirekte Messung des systolischen Blutdrucks nachweisbar. Nicht narkotisierte Ratten werden einzeln in Käfigen, welche ihre Bewegung einschränken, in eine leicht geheizte Kammer gebracht. Ein Puls-Sensor wird innerhalb einer aufblasbaren Manschette am Schwanz jeder Ratte angebracht. Die Manschette wird aufgeblasen, um die Schwanz-Arterie zu schließen. Der Druck in der Manschette wird kontinuierlich reduziert, und der systolische Druck entspricht demjenigen Druck in der Manschette, bei welchem die Pulswellen wieder auftreten. Nach der Registrierung von Kontrollwerten des Blutdrucks und der Herzfrequenz werden die Testverbindungen peroral einmal täglich an vier aufeinanderfolgenden Tagen verabreicht. Zusätzliche Blutdruckmessungen werden üblicherweise nach 2,0, 4,0 und 23,5 Stunden nach jeder täglichen Dosis vorgenommen. Die Werte werden mit denjenigen von Ratten, welche lediglich mit der Trägersubstanz behandelt worden sind, verglichen. […]

[4] = rabbit lung tissue preparation, 30 min incubation at 37°, read-out: In vitro ACEI IC50
[5] = ACE from rabbit lung, 30 min at 37 °C, read-out: IC50-Wert

SMILES	IC50 [1, 4] [nM]	IC50 [1, 5] [nM]	% AI Hemmung ([2]; i.v. Dosis 0.1 mg/kg) [%]	% AI Hemmung ([2]; i.v. Dosis 0.03 mg/kg) [%]	also measured
O=C(O)CN1C(=O)C(NC(CCc2ccccc2)C(=O)O)CCc2ccccc21 (single isomer, unassigned) [Beispiel 8, 1-Carboxymethyl-3-(1-carboxy-3-phenylpropylamino)-2,3,4,5-tetrahydro-1H-[1] benzazepin-2-on]		58			
CCOC(=O)[C@H](CCc1ccccc1)N[C@H]1CCc2ccccc2N(CC(=O)O)C1=O [12 HCl Salz]	400		82	29	% AI Hemmung ([2]; i.v. Dosis 0.06 mg/kg): 74%; % AI Hemmung ([2]; i.v. Dosis 0.3 mg/kg): 95%; % AI Hemmung ([2]; i.v. Dosis 1.0 mg/kg): 100%
CCOC(=O)[C@H](CCc1ccccc1)N[C@H]1CCc2ccccc2N(CC(=O)O)C1=O [Beispiel 12, 1-Carboxymethyl-3S-(1S-äthoxycarbonyl-3-phenylpropylamino)-2,3,4,5-tetrahydro-1H-[1] benzazepin-2-on]					Hemmung der Blutdrucksteigerung nach Angiotensin I-Reizung [2]: vollständig; Blutdruck gesenkt (antihypertensiver Effekt) ([3]; peroral dose of 1 mg/kg): 30 mm Hg

Continued by falling IC50 [1, 4], values first:

IC50 [1, 4] [nM]	IC50 [1, 5] [nM]	SMILES	% AI Hemmung ([2]; i.v. Dosis 0.1 mg/kg) [%]	% AI Hemmung ([2]; i.v. Dosis 0.03 mg/kg) [%]	also measured
600		CCOC(=O)[C@H](CCc1ccccc1)N[C@H]1CCc2ccccc2N(CC(=O)O)C1=O (racemic) [Beispiel 1, 1-Carboxymethyl-3-(1-äthoxycarbonyl-3-phenylpropylamino)-2,3,4,5-tetrahydro-1H-[1] benzazepin-2-on]	50		Hemmung der Blutdrucksteigerung nach Angiotensin I-Reizung [2]: vollständig; % AI Hemmung ([2]; i.v. Dosis 1.0 mg/kg): 100%; % AI Hemmung ([2]; i.v. Dosis 10 mg/kg): 100%; Blutdruck gesenkt (antihypertensiver Effekt) ([3]; 3 mg/kg p. o., once daily for four days, average, measured 2 and 4 h after dosing on the last two days): 40 mm Hg
200		CCOC(=O)[C@@H](CCc1ccccc1)N[C@H]1CCc2ccccc2N(CC(=O)O)C1=O [Beispiel 5, 1-Carboxymethyl-3-(1-äthoxycarbonyl-3-phenylpropylamino)-2,3,4,5,-tetrahydro-1H-[1] benzazepin-2-on]	37		
5	5.2	O=C(O)CN1C(=O)C(NC(CCc2ccccc2)C(=O)O)CCc2ccccc21 (single isomer, unassigned) [Beispiel 9, 1-Carboxymethyl-3-(1-carboxy-3-phenylpropylamino)-2,3,4,5-tetrahydro-1H-[1]-benzazepin-2-on]	80	40	% AI Hemmung ([2]; i.v. Dosis 0.3 mg/kg): 93%
2	1.7	O=C(O)CN1C(=O)[C@@H](N[C@@H](CCc2ccccc2)C(=O)O)CCc2ccccc21 [Beispiel 19, 1-Carboxymethyl-3S-(1S-carboxy-3-phenylpropylamino)-2,3,4,5-tetrahydro-1H-[1] benzazepin-2-on]	93	70	% AI Hemmung ([2]; i.v. Dosis 0.007 mg/kg): 14%; % AI Hemmung ([2]; i.v. Dosis 0.01 mg/kg): 28%; % AI Hemmung ([2]; i.v. Dosis 0.02 mg/kg): 69%; % AI Hemmung ([2]; i.v. Dosis 0.06 mg/kg): 84%
